In ChEMBL document CHEMBL3137667, “[Drug-induced liver injury; fourteenth updated edition of the bibliographic database of liver injuries and related drugs]” (Gastroenterol Clin Biol, 2004):

Key:
[1] = human
[2] = human; remark: listed apart in the source
[3] = human; remark: listed apart in the source
[4] = human; remark: listed apart in the source
[5] = human, serum, 4383 h
[6] = human; remark: listed apart in the source
[7] = human; remark: listed apart in the source
[8] = Times to onset, minimal and maximal, observed in the indexed observations. [column 'DELAI' in source]; conditions: human
[9] = human; remark: listed apart in the source
[10] = Proposed mechanism(s) of liver damage. [column 'MEC' in source]; conditions: human
[11] = human; remark: listed apart in the source
[12] = Highest frequency of acute liver toxicity observed during clinical trials, expressed as a percentage. [column '% AIGUE' in source]; conditions: human
[13] = human; remark: listed apart in the source
[14] = human, serum
[15] = human, serum; remark: listed apart in the source
[16] = Highest frequency of moderate liver toxicity observed during clinical trials, expressed as a percentage. [column '% BIOL' in source]; conditions: human
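Wherever Hepatotoxicity (association with vascular disease) is given: count of indexed literature references reporting vascular liver injury in humans, e.g. peliosis hepatitis, hepatic veno-occlusive disease or Budd-Chiari syndrome.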
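Wherever Hepatotoxicity (benign tumour) is given: value is a count of indexed literature references citing a benign tumour confirmed by histopathology.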
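Wherever Hepatotoxicity (choleostasis) is given: human cholestatic liver injury, shown by histopathology or by peak ALT or AST elevation over alkaline phosphatase ratio below 2, value counts indexed literature reports.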
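Wherever Hepatotoxicity (chronic liver disease) is given: chronic liver injury confirmed by histopathology or persistently raised serum aminotransferase activity beyond 6 months, value given as the count of indexed literature references.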
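Wherever Hepatotoxicity (cirrhosis) is given: value is a count of indexed literature references reporting cirrhosis confirmed by histopathology.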
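Wherever Hepatotoxicity (cytolytic) is given: human cytolytic liver injury, shown by histopathology or by a ratio above 5 of peak ALT or AST elevation to alkaline phosphatase elevation, value counts indexed references.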
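Wherever Hepatotoxicity (granulomatous hepatitis) is given: value is a count of indexed literature references reporting granulomatous liver disease confirmed by histopathology.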
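Wherever Hepatotoxicity (malignant tumour) is given: malignant tumour confirmed by histopathology, value gives the count of indexed literature references reporting it.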
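Wherever Hepatotoxicity (severe hepatitis) is given: human clinical data: severe hepatitis, meaning potentially life-threatening liver failure or clinically observed cases, the value counts how many indexed literature references report it.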
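Wherever Hepatotoxicity (steatosis) is given: steatosis confirmed by histopathology, value is the count of indexed references.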

O=c1[nH]c2ccccc2n1CCCN1CCN(C(c2ccccc2)c2ccccc2)CC1 [OXATOMIDE]
Hepatotoxicity (granulomatous hepatitis) [1]: 0 | Hepatotoxicity (steatosis) [2]: 0 | Hepatotoxicity (malignant tumour) [3]: 0 | Hepatotoxicity (association with vascular disease) [4]: 0 | Hepatotoxicity (chronic liver disease) [5]: 0 | Hepatotoxicity (benign tumour) [6]: 0 | Hepatotoxicity (severe hepatitis) [7]: 0 | Hepatotoxicity (time to onset) [8]: 10 days - 3 months | Hepatotoxicity (choleostasis) [9]: 2 | Hepatotoxicity (mechanism) [10]: Allergic | Hepatotoxicity (cirrhosis) [11]: 0 | Hepatotoxicity (acute) [12]: 0% | Hepatotoxicity (cytolytic) [13]: 3 | Hepatotoxicity (moderate) [14]: 2 | Hepatotoxicity (acute) [15]: 4 | Hepatotoxicity (moderate) [16]: 8.3%

CN(C)[C@@H]1C(O)=C(C(N)=O)C(=O)[C@@]2(O)C(O)=C3C(=O)c4c(O)cccc4[C@@](C)(O)[C@H]3[C@H](O)[C@@H]12 [OXYTETRACYCLINE]
Hepatotoxicity (granulomatous hepatitis) [1]: 0 | Hepatotoxicity (steatosis) [2]: 4 | Hepatotoxicity (malignant tumour) [3]: 0 | Hepatotoxicity (association with vascular disease) [4]: 0 | Hepatotoxicity (chronic liver disease) [5]: 0 | Hepatotoxicity (benign tumour) [6]: 0 | Hepatotoxicity (severe hepatitis) [7]: 1 | Hepatotoxicity (time to onset) [8]: 5 days - 3 weeks | Hepatotoxicity (choleostasis) [9]: 2 | Hepatotoxicity (mechanism) [10]: Dose-dependant | Hepatotoxicity (cirrhosis) [11]: 0 | Hepatotoxicity (acute) [12]: 0% | Hepatotoxicity (cytolytic) [13]: 0 | Hepatotoxicity (moderate) [14]: 1 | Hepatotoxicity (acute) [15]: 2 | Hepatotoxicity (moderate) [16]: 60%

CN1CCN(CCCN2c3ccccc3Sc3ccccc32)CC1 [PERAZINE]
Hepatotoxicity (granulomatous hepatitis) [1]: 0 | Hepatotoxicity (steatosis) [2]: 0 | Hepatotoxicity (malignant tumour) [3]: 0 | Hepatotoxicity (association with vascular disease) [4]: 0 | Hepatotoxicity (chronic liver disease) [5]: 0 | Hepatotoxicity (benign tumour) [6]: 0 | Hepatotoxicity (severe hepatitis) [7]: 0 | Hepatotoxicity (time to onset) [8]: 1.5 months - 1 year | Hepatotoxicity (choleostasis) [9]: 1 | Hepatotoxicity (mechanism) [10]: Dose-dependant | Hepatotoxicity (cirrhosis) [11]: 0 | Hepatotoxicity (acute) [12]: 0.3% | Hepatotoxicity (cytolytic) [13]: 2 | Hepatotoxicity (moderate) [14]: 5 | Hepatotoxicity (acute) [15]: 3 | Hepatotoxicity (moderate) [16]: 43%

NC(=O)NC(=O)Cc1ccccc1 [PHENACEMIDE]
Hepatotoxicity (granulomatous hepatitis) [1]: 0 | Hepatotoxicity (steatosis) [2]: 0 | Hepatotoxicity (malignant tumour) [3]: 0 | Hepatotoxicity (association with vascular disease) [4]: 0 | Hepatotoxicity (chronic liver disease) [5]: 0 | Hepatotoxicity (benign tumour) [6]: 0 | Hepatotoxicity (severe hepatitis) [7]: 8 | Hepatotoxicity (time to onset) [8]: 1 month - 3 months | Hepatotoxicity (choleostasis) [9]: 0 | Hepatotoxicity (mechanism) [10]: Allergic | Hepatotoxicity (cirrhosis) [11]: 0 | Hepatotoxicity (acute) [12]: 3% | Hepatotoxicity (cytolytic) [13]: 8 | Hepatotoxicity (moderate) [14]: 1 | Hepatotoxicity (acute) [15]: 13 | Hepatotoxicity (moderate) [16]: 0%

c1ccc(C2(N3CCCCC3)CCCCC2)cc1 [PHENCYCLIDINE]
Hepatotoxicity (granulomatous hepatitis) [1]: 0 | Hepatotoxicity (steatosis) [2]: 0 | Hepatotoxicity (malignant tumour) [3]: 0 | Hepatotoxicity (association with vascular disease) [4]: 0 | Hepatotoxicity (chronic liver disease) [5]: 0 | Hepatotoxicity (benign tumour) [6]: 0 | Hepatotoxicity (severe hepatitis) [7]: 2 | Hepatotoxicity (time to onset) [8]: 6 hours - 3 days | Hepatotoxicity (choleostasis) [9]: 0 | Hepatotoxicity (mechanism) [10]: Dose-dependant | Hepatotoxicity (cirrhosis) [11]: 0 | Hepatotoxicity (acute) [12]: 0% | Hepatotoxicity (cytolytic) [13]: 2 | Hepatotoxicity (moderate) [14]: 1 | Hepatotoxicity (acute) [15]: 2 | Hepatotoxicity (moderate) [16]: 49.9%

CNNCc1ccc(C(=O)NC(C)C)cc1 [PROCARBAZINE]
Hepatotoxicity (granulomatous hepatitis) [1]: 1 | Hepatotoxicity (steatosis) [2]: 0 | Hepatotoxicity (malignant tumour) [3]: 1 | Hepatotoxicity (association with vascular disease) [4]: 0 | Hepatotoxicity (chronic liver disease) [5]: 0 | Hepatotoxicity (benign tumour) [6]: 0 | Hepatotoxicity (severe hepatitis) [7]: 0 | Hepatotoxicity (time to onset) [8]: 2 weeks - 3 weeks | Hepatotoxicity (choleostasis) [9]: 0 | Hepatotoxicity (mechanism) [10]: Allergic | Hepatotoxicity (cirrhosis) [11]: 0 | Hepatotoxicity (acute) [12]: 1% | Hepatotoxicity (cytolytic) [13]: 2 | Hepatotoxicity (moderate) [14]: 0 | Hepatotoxicity (acute) [15]: 2 | Hepatotoxicity (moderate) [16]: 0%

NC(=O)c1ncn([C@@H]2O[C@H](CO)[C@@H](O)[C@H]2O)n1 [RIBAVIRIN]
Hepatotoxicity (granulomatous hepatitis) [1]: 0 | Hepatotoxicity (steatosis) [2]: 1 | Hepatotoxicity (malignant tumour) [3]: 0 | Hepatotoxicity (association with vascular disease) [4]: 0 | Hepatotoxicity (chronic liver disease) [5]: 0 | Hepatotoxicity (benign tumour) [6]: 0 | Hepatotoxicity (severe hepatitis) [7]: 1 | Hepatotoxicity (time to onset) [8]: 11 weeks - 6 months | Hepatotoxicity (choleostasis) [9]: 1 | Hepatotoxicity (mechanism) [10]: Mitochondrial toxicity | Hepatotoxicity (cirrhosis) [11]: 0 | Hepatotoxicity (acute) [12]: 0% | Hepatotoxicity (cytolytic) [13]: 1 | Hepatotoxicity (moderate) [14]: 3 | Hepatotoxicity (acute) [15]: 2 | Hepatotoxicity (moderate) [16]: 33%

CO[C@H]1/C=C/O[C@@]2(C)Oc3c(C)c(O)c4c(c3C2=O)C2=NC3(CCN(CC(C)C)CC3)NC2=C(NC(=O)/C(C)=C\C=C\[C@H](C)[C@H](O)[C@@H](C)[C@@H](O)[C@@H](C)[C@H](OC(C)=O)[C@@H]1C)C4=O [RIFABUTIN]
Hepatotoxicity (granulomatous hepatitis) ([1]; Liver): 0 | Hepatotoxicity (steatosis) [2]: 0 | Hepatotoxicity (malignant tumour) [3]: 0 | Hepatotoxicity (association with vascular disease) [4]: 0 | Hepatotoxicity (chronic liver disease) [5]: 0 | Hepatotoxicity (benign tumour) [6]: 0 | Hepatotoxicity (severe hepatitis) ([7]; Liver): 1 | Hepatotoxicity (time to onset) [8]: 2 weeks - 11 weeks | Hepatotoxicity (choleostasis) ([9]; Liver): 0 | Hepatotoxicity (mechanism) ([10]; Liver): Dose-dependant | Hepatotoxicity (cirrhosis) [11]: 0 | Hepatotoxicity (acute) ([12]; Liver): 0% | Hepatotoxicity (cytolytic) ([13]; Liver): 1 | Hepatotoxicity (moderate) [14]: 6 | Hepatotoxicity (acute) [15]: 2 | Hepatotoxicity (moderate) ([16]; Liver): 7.1%

CS(=O)(=O)c1ccc(C2=C(c3ccccc3)C(=O)OC2)cc1 [ROFECOXIB]
Hepatotoxicity (granulomatous hepatitis) [1]: 0 | Hepatotoxicity (steatosis) [2]: 0 | Hepatotoxicity (malignant tumour) [3]: 0 | Hepatotoxicity (association with vascular disease) [4]: 0 | Hepatotoxicity (chronic liver disease) [5]: 0 | Hepatotoxicity (benign tumour) [6]: 0 | Hepatotoxicity (severe hepatitis) [7]: 0 | Hepatotoxicity (time to onset) [8]: 9 weeks | Hepatotoxicity (choleostasis) [9]: 1 | Hepatotoxicity (mechanism) [10]: Allergic | Hepatotoxicity (cirrhosis) [11]: 0 | Hepatotoxicity (acute) [12]: 0% | Hepatotoxicity (cytolytic) [13]: 1 | Hepatotoxicity (moderate) [14]: 1 | Hepatotoxicity (acute) [15]: 2 | Hepatotoxicity (moderate) [16]: 3.2%

CCC(C)n1ncn(-c2ccc(N3CCN(c4ccc(OC[C@H]5CO[C@](Cn6cncn6)(c6ccc(F)cc6F)O5)cc4)CC3)cc2)c1=O (stereo partly drawn) [SAPERCONAZOLE]
Hepatotoxicity (granulomatous hepatitis) [1]: 0 | Hepatotoxicity (steatosis) [2]: 0 | Hepatotoxicity (malignant tumour) [3]: 0 | Hepatotoxicity (association with vascular disease) [4]: 0 | Hepatotoxicity (chronic liver disease) [5]: 0 | Hepatotoxicity (benign tumour) [6]: 0 | Hepatotoxicity (severe hepatitis) [7]: 0 | Hepatotoxicity (time to onset) [8]: 8 weeks | Hepatotoxicity (choleostasis) [9]: 0 | Hepatotoxicity (mechanism) [10]: Dose-dependant | Hepatotoxicity (cirrhosis) [11]: 0 | Hepatotoxicity (acute) [12]: 0% | Hepatotoxicity (cytolytic) [13]: 0 | Hepatotoxicity (moderate) [14]: 1 | Hepatotoxicity (acute) [15]: 0 | Hepatotoxicity (moderate) [16]: 0%

CC(C)[C@@H](CC[C@@H](C)[C@H]1CC[C@H]2[C@@H]3[C@H](O)C[C@H]4C[C@@H](NCCCNCCCCN)CC[C@]4(C)[C@H]3CC[C@]12C)OS(=O)(=O)O [SQUALAMINE]
Hepatotoxicity (granulomatous hepatitis) [1]: 0 | Hepatotoxicity (steatosis) [2]: 0 | Hepatotoxicity (malignant tumour) [3]: 0 | Hepatotoxicity (association with vascular disease) [4]: 0 | Hepatotoxicity (chronic liver disease) [5]: 0 | Hepatotoxicity (benign tumour) [6]: 0 | Hepatotoxicity (severe hepatitis) [7]: 0 | Hepatotoxicity (time to onset) [8]: 2 days - 5 days | Hepatotoxicity (choleostasis) [9]: 1 | Hepatotoxicity (mechanism) [10]: Dose-dependant | Hepatotoxicity (cirrhosis) [11]: 0 | Hepatotoxicity (acute) [12]: 38.5% | Hepatotoxicity (cytolytic) [13]: 2 | Hepatotoxicity (moderate) [14]: 1 | Hepatotoxicity (acute) [15]: 2 | Hepatotoxicity (moderate) [16]: 0%

Nc1ccc(S(N)(=O)=O)cc1 [SULFANILAMIDE]
Hepatotoxicity (granulomatous hepatitis) [1]: 0 | Hepatotoxicity (steatosis) [2]: 1 | Hepatotoxicity (malignant tumour) [3]: 0 | Hepatotoxicity (association with vascular disease) [4]: 0 | Hepatotoxicity (chronic liver disease) [5]: 0 | Hepatotoxicity (benign tumour) [6]: 0 | Hepatotoxicity (severe hepatitis) [7]: 5 | Hepatotoxicity (time to onset) [8]: 2 weeks - 3 months | Hepatotoxicity (choleostasis) [9]: 1 | Hepatotoxicity (mechanism) [10]: Allergic | Hepatotoxicity (cirrhosis) [11]: 0 | Hepatotoxicity (acute) [12]: 0% | Hepatotoxicity (cytolytic) [13]: 5 | Hepatotoxicity (moderate) [14]: 0 | Hepatotoxicity (acute) [15]: 5 | Hepatotoxicity (moderate) [16]: 0%

Cc1ncc(C[n+]2csc(CCO)c2C)c(N)n1 [THIAMINE ION]
Hepatotoxicity (granulomatous hepatitis) ([1]; Liver): 0 | Hepatotoxicity (steatosis) [2]: 1 | Hepatotoxicity (malignant tumour) [3]: 0 | Hepatotoxicity (association with vascular disease) [4]: 0 | Hepatotoxicity (chronic liver disease) [5]: 1 | Hepatotoxicity (benign tumour) [6]: 0 | Hepatotoxicity (severe hepatitis) ([7]; Liver): 0 | Hepatotoxicity (time to onset) [8]: 2 years | Hepatotoxicity (choleostasis) ([9]; Liver): 0 | Hepatotoxicity (mechanism) ([10]; Liver): Dose-dependant | Hepatotoxicity (cirrhosis) [11]: 0 | Hepatotoxicity (acute) ([12]; Liver): 0% | Hepatotoxicity (cytolytic) ([13]; Liver): 0 | Hepatotoxicity (moderate) [14]: 0 | Hepatotoxicity (acute) [15]: 0 | Hepatotoxicity (moderate) ([16]; Liver): 0%
